PubChem BioAssay AID489032 (Sanford-Burnham Center for Chemical Genomics, 2010)
Active and inactive are the calls of the source. No rule for the calls is given here.

System: UPR adaptive arm reporter cells, luciferase luminescence
Experiment: adaptive unfolded protein response reporter activation – cell-based, luciferase luminescence, dose response (AID 489032)

SMILES	EC50
Cc1ccc2c(c1)C(c1ccc(N3CCOCC3)cc1)=NNC(c1cccs1)=N2	46.9 µM (inactive)
CCOC(=O)c1nn(-c2ccc(OCC)cc2)c2nc(-c3ccco3)c(C#N)c(=O)n12	58.9 µM (inactive)
O=C(Nc1ccc(Oc2ccc(NC(=O)Nc3ccccc3Cl)cc2)cc1)Nc1ccccc1Cl	> 80 µM (inactive)
CCc1ccc(-c2cc(C(F)(F)F)n3nc(C(=O)Nc4cnn(Cc5ccc(C)cc5)c4)cc3n2)s1	4.24 µM
O=C(Nc1ccc(Br)cc1)c1cc(-c2ccncc2)nc2ccccc12	11.1 µM
O=C(Nc1nc2ccc(Cl)cc2s1)c1ccc(N2CCCCC2)c([N+](=O)[O-])c1	> 80 µM (inactive)
N#C/C(=C\c1ccc(OCc2ccccc2)cc1)C(=O)Nc1nc2c(s1)CCN(Cc1ccccc1)C2	> 80 µM (inactive)
COc1ccc(N=c2oc3ccc(OC)cc3cc2-c2nc3ccccc3[nH]2)cc1	15.3 µM
COc1cc(-c2noc(C)c2/C=C/c2ccc(OC(C)=O)cc2)cc(OC)c1OC	> 80 µM (inactive)
COC(=O)C1C(O)=C(C=Nc2cccc3ccccc23)C(=O)CC1(C)C (stereo unspecified)	30.1 µM (inactive)
Cn1nnnc1Sc1ncnc2scc(-c3ccc(Cl)cc3)c12	> 80 µM (inactive)
OC(CNCC1CCCO1)Cn1c2ccc(Cl)cc2c2cc(Cl)ccc21 (stereo unspecified)	> 80 µM (inactive)
Fc1ccc(Nc2nc(NCc3ccco3)c3ccccc3n2)cc1	> 80 µM (inactive)
COc1cc(/C=N/Nc2nc(Nc3ccccc3)nc(-n3nc(C)cc3C)n2)cc(OC)c1OC	> 80 µM (inactive)
Cc1cnc(NC(=O)c2cc(S(=O)(=O)N(C)C)ccc2N2CCCC2)s1	6.6 µM
CC1(C)C=Cc2c(c3c(c4c(=O)c(-c5ccc(O)cc5)coc24)OC(C)(C)CC3)O1	> 80 µM (inactive)
CSc1ccccc1NC(=O)c1cc(-c2cccnc2)nc2ccc(Br)cc12	> 80 µM (inactive)
CC(C)(C)C(=O)NC(=S)NNC(=O)c1sc2ccccc2c1Cl	> 80 µM (inactive)
Cc1ccc(NC(=O)c2ccc(N/N=C/c3cccc(O)c3)c([N+](=O)[O-])c2)cc1	> 80 µM (inactive)
Oc1ccc(/C=N/Nc2ncnc3c2ncn3Cc2ccccc2)cc1O	11 µM
Cn1c(-c2ccccc2)c(/C=N/NC(=O)c2ccc(O)cc2)c2ccccc21	> 80 µM (inactive)
CCc1ccc(-n2c(SCC(=O)c3ccc4c(c3)NC(=O)CO4)nc3ccccc3c2=O)cc1	> 80 µM (inactive)
COc1ccc(-c2cc(-c3ccccc3)c(C#N)c(S(C)(=O)=O)n2)cc1	4.88 µM

SMILES	EC50
O=C(Nc1ccc(SC(F)F)cc1)c1cc(-c2ccncc2)nc2ccccc12	34.7 µM (inactive)
Cc1nc(SCC(=O)Nc2ccc(F)cc2)c(C#N)c(C)c1CC(=O)c1ccc(Br)cc1	> 80 µM (inactive)
COc1ccc(OC)c(Nc2nc(NCc3ccco3)nc(N)c2[N+](=O)[O-])c1	> 80 µM (inactive)
CCC(C)Nc1nc(N)c([N+](=O)[O-])c(NC2CCCCC2)n1 (stereo unspecified)	55.9 µM (inactive)
CC(C)(C)c1cc(-c2nc(N)nc(N)n2)c(O)c(C(C)(C)C)c1	38.8 µM (inactive)
CCOC(=O)C1=C(O)/C(=C/c2cn(CC(=O)NCC3CCCO3)c3ccccc23)SC1=Nc1ccc(C)cc1 (stereo unspecified)	> 80 µM (inactive)
COCc1cc(C)nc(OCC(=O)N/N=C/c2ccc(-c3cc([N+](=O)[O-])ccc3Cl)o2)c1C#N	13.5 µM
OCCCn1c(C2CCCN2c2nc(-c3ccc(Cl)cc3)cs2)nc2cc(Cl)c(N3CCCCC3)cc21 (stereo unspecified)	> 80 µM (inactive)
C#CCn1c(=NC(=O)c2ccc(Br)s2)sc2cccc(OC)c21	> 80 µM (inactive)
CCOC(=O)c1c(NC(=O)/C=C/C(=O)O)sc(C)c1-c1ccc(C(C)(C)C)cc1	25.6 µM (inactive)
O=C1NC(=O)C(=Cc2cn(CCOc3ccc4c(c3)OCO4)c3ccccc23)C(=O)N1	31.2 µM (inactive)
COc1ccc(-c2csc3nc(-c4ccc(C)cc4)oc(=O)c23)cc1OC	> 80 µM (inactive)
C/C(Cl)=C\Cn1c(O)c(N=NC(N)=S)c2cc(Br)ccc21	4.06 µM
Cc1ccc2nc(N(CCCN(C)C)C(=O)c3ccc(S(=O)(=O)N4CCc5ccccc5C4)cc3)sc2c1	> 80 µM (inactive)
Cc1cccc(Nc2nc3c(S(=O)(=O)c4ccccc4)nnn3c3ccccc23)c1C	50.2 µM (inactive)
COc1ccc(-c2c/c(=N\c3nc(-c4ccccc4)c(C)s3)c3ccccc3o2)cc1O	> 80 µM (inactive)
CCOC(=O)c1cc(-c2ccccc2)sc1NC(=O)c1ccc(OC)cc1	> 80 µM (inactive)
N#C/C(=C\c1ccc(N2CCCC2)c([N+](=O)[O-])c1)c1nc2ccccc2[nH]1	> 80 µM (inactive)
COC(=O)Cc1csc(/N=C/c2c(O)n(-c3cccc(C(F)(F)F)c3)c(=O)c3ccccc23)n1	> 80 µM (inactive)
Cc1cc(NC(=O)/C(C#N)=C/c2ccc(-c3ccc(SC(F)F)cc3)o2)n(-c2ccccc2)n1	> 80 µM (inactive)
CCOC(=O)c1sc(-c2ccccc2)cc1NC(=O)Nc1ccc([N+](=O)[O-])cc1	24.2 µM (inactive)
Cc1nn(Cc2c(Cl)cccc2Cl)c(C)c1NC(=O)c1cn(-c2ccccc2)nc1-c1ccccc1	> 80 µM (inactive)
Cc1ccc(S(=O)(=O)N(CC(=O)N/N=C/c2ccc(F)cc2)c2cccc3cccnc23)cc1	> 80 µM (inactive)

SMILES	EC50
CC(C)(C)C(=O)NC(=S)NNC(=O)c1ccc(-c2ccccc2)cc1	9.38 µM
CCC1CCc2c(sc3nc(SCC(=O)NCc4ccco4)n(-c4ccccc4)c(=O)c23)C1 (stereo unspecified)	> 80 µM (inactive)
O=C(Nc1ccc(O)c(-c2nc3ccccc3s2)c1)c1cc(=O)c2ccccc2o1	> 80 µM (inactive)
CCCCCCCCCCOC(=O)Cn1c(COc2ccc(OC)cc2)[n+](C)c2ccccc21	> 80 µM (inactive)
CCN(CC)c1ccc(N=Cc2c(O)n(Cc3ccccc3)c(=O)[nH]c2=O)cc1	62.5 µM (inactive)
Cc1ccc(-c2nnc(-c3ccc(NC(=O)c4cccs4)cc3)o2)cc1	15.9 µM
CSC1=NC(C)(C)C=C(/C=C/c2ccc(Cl)cc2)N1	> 80 µM (inactive)
CN(C)C(=O)CCc1ccc2c3c([nH]c2c1)[C@]1(CCc2ccccc2)[C@@H](C(=O)N2CCCCC2)C[C@H](CC(=O)NCCC2=CCCCC2)C(=O)N1CC3	35.9 µM (inactive)
CC1C/C(=N/Nc2nc3ccccc3[nH]2)CC(C)(C)C1 (stereo unspecified)	> 80 µM (inactive)
Cc1cc(NC(=O)c2cc(-c3ccncc3)nc3ccccc23)ccc1Br	27.8 µM (inactive)
Cc1c(Cl)cccc1Nc1nc(NCCO)c2ccccc2n1	26.6 µM (inactive)
CCCCCCCCCn1c2c(c(=N)c3c1CCC3)CCCC2	25.6 µM (inactive)
O=c1cc(CN2CCN(c3ccc(F)cc3)CC2)c2cc3c(cc2o1)CCCC3	17.6 µM
CCOC(=O)C1=C(C)N=c2s/c(=C3/C(=O)Nc4ccccc43)c(=O)n2C1c1ccc(C)cc1 (stereo unspecified)	> 80 µM (inactive)
Cc1cccc2sc(NC(=O)c3cc(S(=O)(=O)N(C)C)ccc3N3CCCC3)nc12	9.84 µM
COc1cc2c(cc1NC(=S)NC(=O)/C=C/c1ccco1)oc1ccccc12	21.3 µM (inactive)
Cc1ccc2c(c1)c(N=NC(N)=S)c(O)n2Cc1ccccc1	61.8 µM (inactive)
CC1(C)CC[C@@]23CC[C@]4(C)[C@@](OC2=O)(C3C1)[C@H]1O[C@H]1C1[C@@]2(C)CC[C@H](O)C(C)(C)C2CC[C@]14C (stereo partly specified)	> 80 µM (inactive)
COc1ccc(Cc2nnc(N/N=C/c3ccc(N(C)C)cc3)[nH]c2=O)cc1OC	25.5 µM (inactive)
COc1ccccc1-c1cc(-c2ccccc2)nc(SC(C(N)=O)c2ccccc2)c1C#N (stereo unspecified)	71.2 µM (inactive)
COc1cc2[nH]c3c(N4CCN(c5ccc(Cl)cc5)CC4)ncnc3c2cc1OC	> 80 µM (inactive)
CCc1nn(-c2cc(Oc3cccc4ccccc34)nc(-c3ccccc3)n2)c(N)c1C#N	49.2 µM (inactive)
Cc1ccc(Nc2nc(NCCO)c3ccccc3n2)cc1C	> 80 µM (inactive)

SMILES	EC50
CCOc1ccc(-c2nnc(SCC(=O)Nc3ccc4c(c3)c3ccccc3n4CC)n2N)cc1	> 80 µM (inactive)
CCCCOc1ccccc1NC(=O)Cn1c(-c2nonc2N)nc2ccccc21	22 µM (inactive)
COc1ccc(C(CCNCc2ccccc2)c2ccc(F)cc2)cc1 (stereo unspecified)	10.7 µM
Cc1ccc(NC(=O)CSc2nc3ccccc3c3nc4ccccc4n23)cc1	7.77 µM
Cc1ccc(Nc2nc(-c3c(C)nc4ccccn34)cs2)cc1	> 80 µM (inactive)
O=C(Nc1ccc(O)c2c(=O)cc(-c3cccc(Cl)c3)oc12)c1cccc(Cl)c1	20.9 µM (inactive)
CCCCCn1c(N)c(-c2nc3ccccc3o2)c2c([N+](=O)[O-])nn(CC)c(=O)c21	> 80 µM (inactive)
OCCNc1nc(Nc2ccc(Cl)c(Cl)c2)nc2ccccc12	> 80 µM (inactive)
CCOc1ccc(-n2c(C)cc(C(=O)CCl)c2C)cc1	8.94 µM
Nc1cccc(-c2nc3cc(S(=O)(=O)c4ccc5oc(-c6cccc(N)c6)nc5c4)ccc3o2)c1	24.1 µM (inactive)
CCOC(=O)c1nnc(-c2ccc(C)cc2)nc1Oc1ccc(Cl)cc1Cl	40 µM (inactive)
Oc1cc(-c2ccc(N3CCCCC3)nc2)cc2cccnc12	> 80 µM (inactive)
Cn1c(=O)c2c(SCC(=O)Nc3ccccc3F)nc(-c3ccccc3F)nc2n(C)c1=O	36.1 µM (inactive)
O=C(/C(=N/N=C/c1ccc(O)c(O)c1)c1ccccc1)c1ccccc1	> 80 µM (inactive)
Cc1cc(NC(=O)c2cncc(Br)c2)ccc1NC(=O)c1cc2ccccc2o1	> 80 µM (inactive)
Cc1c(O)cc2c(c1O)C(=O)CC(c1ccccc1)O2 (stereo unspecified)	10.8 µM
Cc1ccc(/C=C/C(=O)c2cc(Br)ccc2OC(=O)c2ccco2)cc1	37.9 µM (inactive)
COc1ccc(C(=O)/C=C/c2ccc(O)cc2)c(O)c1C/C=C(\C)CCC=C(C)C	> 80 µM (inactive)
CCC(Sc1nnc2c3ccccc3n(CC)c2n1)C(=O)Nc1sc2c(c1C#N)CCCC2 (stereo unspecified)	16.5 µM
CCOc1cc(/C=N/NC(=O)Cn2nc([N+](=O)[O-])cc2C)cc(Br)c1OCc1ccccc1C	> 80 µM (inactive)
COc1ccc(C(=O)Nc2cccc(/C=C/c3nc4ccccc4c(=O)[nH]3)c2)cc1	> 80 µM (inactive)
CCCCCCCCCCOC(=O)Cn1c(COc2ccccc2C)[n+](C)c2ccccc21	> 80 µM (inactive)
